Results published in patent US12508241B2, “Peripheral nerve agonists suppress inflammation” (University of Pittsburgh—Of the Commonwealth System of …, priority 2019, dated 2025).

Columns and labels:
[1] = biological target: MRGPRD (Homo sapiens, UniProt Q8TDS7); conditions: cited from earlier work; for activity as MRGPRD agonists relative to β-ala: compared with β-ala
[2] = tested on: mast cell degranulation; conditions: 5% topical, shaved flank skin twice daily for 2 days, then i.d. compound 48/80, read ten minutes later; figure values in μg per g of tissue, p<0.01
Procedure: Mice were then given Evans' blue dye i.v. followed by an intradermal injection of compound 48/80. Ten minutes later, the amount of Evans' blue dye present in the skin (μg·g^−1 of tissue) as an indication of the extent of mast cell degranulation was determined by skin biopsy, enzymatic digestion, and […] evaluation.

[3] = tested on: mast cell degranulation; experiment: 48/80-mediated mast cell degranulation, Evan's blue dye in the skin, i.d. β-alanine pre-treatment; assay type: in vivo, C57BL/6 mice
Procedure: Compound 48/80, the condensation product of N-methyl p-methoxyphenethylamine and formaldehyde, is a well-known chemical that induces rapid mast cell degranulation and associated edema. The degree of edema in the skin is measured by the amount of Evan's blue dye in the skin. […] In mice that lack MRGPRD neurons, β-alanine had no effect on 48/80's ability to activate mast cells (compare columns 5 and 6). This is a specificity control since the neurons that express the receptor for β-alanine are absent.

[4] = tested on: wound healing pathways; conditions: 100 mM injected twice daily for 2 days, WT C57BL/6; compared with published tape stripping RNAseq data
Procedure: Wild type C57BL/6 mice were injected with 100 mM β-alanine or vehicle twice daily for 2 days. Skin at the treated sites were harvested and mRNA was obtained and subjected to RNAseq. Genes with increased gene expression in the β-alanine treated group were anayzed by pathway analysis.

[5] = tested on: DNFB contact hypersensitivity; conditions: MRGPRD-DTR mice treated with DT (MRGPRD-ablated), same regimen
Procedure: Referring to FIG. 2, cohorts of C57BL/6 mice (n=5) were either pre-treated by i.d. injection of b-alanine (WT+b-ala) or vehicle (WT) on the abdomen for 2 days followed by sensitization at the same site with 0.2% DNFB (a chemical sensitizer). Five days later 0.2% DNFB was applied to the ear. The increased degree of ear swelling on the indicated day compared to ear thickness prior to application of DNFB was measured. Increased ear thickness was employed a surrogate for the amount of immune response to DNFB was measured. As a specificity control, MRGPRD-DTR mice treated with DT to ablate MRGPRD-expressing neurons (labeled MRGPRD in FIG. DD), and were treated similarly (MRGPRD and MRGPRD+b-ala).

Chain of MRGPRD (Q8TDS7 whole entry): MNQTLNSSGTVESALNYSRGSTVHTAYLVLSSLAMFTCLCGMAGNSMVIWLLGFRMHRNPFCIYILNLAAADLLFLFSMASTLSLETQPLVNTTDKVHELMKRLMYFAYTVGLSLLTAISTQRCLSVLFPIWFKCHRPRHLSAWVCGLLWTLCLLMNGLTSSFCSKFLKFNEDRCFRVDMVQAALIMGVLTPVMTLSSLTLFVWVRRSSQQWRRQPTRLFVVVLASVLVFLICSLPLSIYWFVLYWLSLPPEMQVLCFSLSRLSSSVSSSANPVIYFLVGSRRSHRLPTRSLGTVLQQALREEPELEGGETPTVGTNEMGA

Structure (SMILES): NCCCC(=O)O [GABA, 4-aminobutanoic acid]
- activity as MRGPRD agonists relative to β-ala [1]: significantly weaker

Structure (SMILES): CC(CN)C(=O)O (stereo not drawn) [β-AIBA, 3-aminoisobutyric acid]
- activity as MRGPRD agonists relative to β-ala [1]: significantly weaker

Structure (SMILES): NCCC(=O)O [β-alanine, 3-aminopropanoic acid]
- mast cell degranulation (dermal Evan's blue dye) [2]: suppresses
- Evan's blue dye in the skin (edema, mast cell degranulation) after compound 48/80 ([3]; C57BL/6 mice, i.d. pre-treatment for 2 days, then i.d. compound 48/80, FIG. 1 columns 3 and 4): inhibited this effect
- Evan's blue dye in the skin (48/80's ability to activate mast cells) ([3]; mice that lack MRGPRD neurons (specificity control), FIG. 1 columns 5 and 6): no effect
- cutaneous mast cell function ([3]; wild-type mice (summary statement of Example 1)): sufficient to suppress
- pathways activated in skin (RNAseq pathway analysis) [4]: activates wound healing pathways
- ear swelling (immune response to DNFB) [5]: no effect
- forskolin-stimulated cAMP production ([1]; cells expressing MRGPRD): decreases
